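48-hour exposure; five concentrations; linearly interpolated endpoints. GI50 = concentration required for 50% inhibition of growth. TGI: concentration producing complete growth inhibition.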 Bounds are passed on as bounds.

The values that follow come from PubChem BioAssay (NCI).

What all share (test): growth of human tumour cells (NCI), 48 h
The subject of assay [1] is HCC-2998 colon.
The subject of assay [2] is HS 578T breast.
Assay [3] relates to TK-10 renal.
In assay [4] the test system is SF-539 CNS.
Assay [5] concerns MDA-MB-435.
In assay [6] the test system is SNB-75 CNS.
Assay [7] has as its system A498 renal.
The subject of assay [8] is DU-145 prostate.
Assay [9] deals with NCI-H226 lung.
Assay [10] deals with MDA-MB-231 breast.

With `COc1ccc(-c2nc(-c3nc4cc(C)c(C)cc4[nH]3)cc3c2[nH]c2ccccc23)cc1`, the GI50 was 3.88 µM in assay [1]; 4.6 µM in assay [2]; 7.85 µM in [3]; 1.72 µM in [4]; 3.97 µM in [5]; 3.44 µM in [6]. Moreover, the GI50 in assay [7] was 14.4 µM; in assay [8] it was 8.53 µM; in assay [9], 3.32 µM; in assay [10] it was 2.54 µM. In addition, the TGI was 94.8 µM in [1]; more than 100 µM in assay [2]; more than 100 µM in [3]; 4.24 µM in assay [4]; more than 100 µM in [5]; 35 µM in assay [6]. In addition, the TGI in assay [7] was 42.4 µM; in assay [8] it was more than 100 µM; in assay [9], 54.8 µM; in assay [10], 7.76 µM.

For `[N-]=[N+]=CC(=O)OCC(N)C(=O)O` (configuration not stated), the GI50 in [1] is 0.556 µM; in assay [2], more than 100 µM; in [3], 0.573 µM; in assay [4] it was 0.64 µM; in assay [5] it was 0.457 µM; in assay [6] it was 2.68 µM. Moreover, the GI50 in assay [7] is 57.6 µM; in assay [8] it was 0.952 µM; in assay [9], 3.53 µM; in assay [10], 0.763 µM. For the same molecule, the TGI in [1], in [2], in assay [3], in assay [4], in [5] and in assay [6] was more than 100 µM each time. Also, the TGI in [7], in assay [8], in assay [9] and in assay [10] was more than 100 µM throughout.

On to `Cc1cccc(N=C2c3cc([N+](=O)[O-])ccc3-c3c2cc([N+](=O)[O-])cc3[N+](=O)[O-])c1`, for which the GI50 in assay [1] was 6.45 µM; in [2], 11.3 µM; in [3] it was 12.9 µM; in assay [4], 17 µM; in assay [5], 3.49 µM; in [6] it was 4.59 µM. Moreover, the GI50 in assay [7] was 27.8 µM; in [8], 3.24 µM; in assay [9] it was 5.08 µM; in assay [10], 2.43 µM. The TGI is 18.7 µM in assay [1]; 53.9 µM in assay [2]; more than 100 µM in assay [3]; 37.8 µM in assay [4]; 10.8 µM in assay [5]; 42.4 µM in assay [6]. The TGI is more than 100 µM in assay [7], 11 µM in [8], 22.2 µM in assay [9] and 5 µM in assay [10].

On to `O=C(O)c1cccc(CC(Br)C(=O)O)c1` (configuration not stated), for which the TGI in [1], in [2], in assay [3], in assay [4], in [5] and in assay [6] was more than 100 µM in each case. The TGI in assay [7], in assay [8], in assay [9] and in [10] was more than 100 µM in each case.

Consider `O=C(O)CC1(C(=O)O)CCCCC1`, for which the TGI in [1], in assay [2], in assay [3], in assay [4], in [5] and in [6] was more than 100 µM each time. For the same molecule, the TGI in [7], in assay [8], in assay [9] and in [10] was more than 100 µM each time.

For `O=C(Cn1ccnc1[N+](=O)[O-])NCC(F)(F)C(F)(F)F`, the GI50 in [1], in assay [2], in assay [3], in [4], in assay [5] and in [6] was more than 100 µM in each case. The GI50 in assay [7], in assay [8], in assay [9] and in assay [10] was more than 100 µM in each case. For the same molecule, the TGI in assay [1], in assay [2], in assay [3], in assay [4], in assay [5] and in assay [6] was more than 100 µM each time. In addition, the TGI in assay [7], in assay [8], in assay [9] and in assay [10] was more than 100 µM throughout.

For the molecule `CN1CCN(Cc2ccc(NC(=O)c3cncc(C#Cc4c(N)ncc5cc(F)ccc45)c3)cc2C(F)(F)F)CC1`, the GI50 in assay [1] was 2.04 µM; in assay [2] it was 1.11 µM; in assay [3], 2.08 µM; in assay [4], 0.86 µM; in assay [5], 0.532 µM; in assay [6], 2.02 µM. Besides, the GI50 in [7] was 0.839 µM; in assay [8], 0.874 µM; in assay [9], 0.442 µM; in assay [10], 0.477 µM. Moreover, the TGI in assay [1] worked out at 11.1 µM; in assay [2], 6.47 µM; in assay [3], 4.43 µM; in assay [4], 2.73 µM; in assay [5], 1.15 µM; in assay [6] it was 7.84 µM. Moreover, the TGI in assay [7] was found to be 3.99 µM; in [8] it was 1.58 µM; in assay [9], 8.56 µM; in [10], 1.13 µM.

Consider `O=C(/C=C\Sc1nccc(C(F)(F)F)n1)c1ccc(Br)cc1`, for which the GI50 was 12.5 µM in [1]; 40.5 µM in assay [2]; 26.4 µM in assay [3]; 23.3 µM in [4]; 26.2 µM in assay [5]; 28.9 µM in assay [6]. The GI50 in [7] is more than 100 µM; in assay [8] it was 17.6 µM; in assay [9], 26.9 µM; in assay [10], 19.1 µM. The TGI is 32.6 µM in [1]; more than 100 µM in [2]; 59.6 µM in assay [3]; 69.4 µM in assay [4]; 78 µM in [5]; more than 100 µM in assay [6]. The TGI in assay [7] was more than 100 µM; in assay [8], 47.9 µM; in assay [9] it was 87.8 µM; in assay [10], 44.4 µM.

Consider `COc1cc(-c2nc3ccccc3s2)ccc1OCc1nc2n(n1)S(=O)(=O)c1ccccc1N2C`, for which the GI50 in assay [1] was more than 100 µM; in assay [2], more than 100 µM; in assay [3] it was more than 100 µM; in assay [4], more than 100 µM; in assay [5], more than 100 µM; in assay [6], 99.6 µM. In addition, the GI50 in assay [7], in assay [8], in assay [9] and in assay [10] was more than 100 µM throughout. Moreover, the TGI in [1], in assay [2], in assay [3], in assay [4], in [5] and in assay [6] was more than 100 µM in each case. For the same molecule, the TGI in [7], in assay [8], in assay [9] and in assay [10] was more than 100 µM each time.

With `CCNc1nc(N2CC(=O)Nc3cc(OC)ccc32)c2ccccc2n1`, the GI50 in assay [1] is 0.000614 µM; in assay [2] it was 0.00164 µM; in assay [3], 0.0822 µM; in [4], 0.0011 µM; in [5], 0.000193 µM; in assay [6], 0.000433 µM. For the same molecule, the GI50 was 0.00151 µM in assay [7], 0.000435 µM in assay [8] and 0.000553 µM in assay [10]. For the same molecule, the TGI was 47.8 µM in [2]; more than 100 µM in assay [3]; 0.00655 µM in assay [4]; 0.000442 µM in [5]; more than 100 µM in assay [6]; 12.1 µM in [8]. The TGI in assay [9] and in [10] was more than 100 µM throughout.

`CO[C@H]1CC[C@@]2(C)C(=CC[C@H]3[C@@H]4C[C@H](O)C[C@@]4(C)CC[C@@H]32)C1`: the GI50 in [1] was 11.6 µM; in assay [2], 2.16 µM; in assay [3], 4.74 µM; in [4] it was 3.01 µM; in assay [5], 1.26 µM; in [6] it was 3.41 µM. Besides, the GI50 in assay [7] was 1.32 µM; in assay [8], 4.37 µM; in assay [9], 13.8 µM; in [10], 4.97 µM. The TGI was determined as 27.2 µM in [1]; 9.41 µM in assay [2]; 17.9 µM in [3]; 8.64 µM in [4]; 6.89 µM in [5]; 23 µM in [6]. In addition, the TGI was determined as 9.25 µM in [7], 15.2 µM in [8], 27.8 µM in assay [9] and 24.7 µM in [10].

Regarding `COc1ccc(F)cc1C(=O)c1cnc(NC2CCN(S(C)(=O)=O)CC2)nc1N`, the GI50 in assay [1] was 3.55 µM; in [2] it was 3.93 µM; in [3] it was 1.83 µM; in assay [4] it was 3.29 µM; in [5], 2.39 µM; in assay [6], 3.97 µM. Moreover, the GI50 was 3.22 µM in assay [7], 5.52 µM in assay [8], 2.56 µM in assay [9] and 2.49 µM in [10]. The TGI in [1] is more than 25 µM; in assay [2], 17.8 µM; in assay [3] it was 14.7 µM; in assay [4] it was 7.77 µM; in [5], more than 25 µM; in assay [6], 10.2 µM. Also, the TGI in assay [7] is 8.06 µM; in assay [8], 24.5 µM; in assay [9] it was more than 20.6 µM; in [10], more than 25 µM.
